Assay results taken from EP2970215B1, “PYRROLIDINE DERIVATIVES, PHARMACEUTICAL COMPOSITIONS CONTAINING THEM, AND THEIR USE IN THERAPY” (AbbVie Deutschland GmbH & Co. KG, priority 2013, dated 2014).

Biological target: T1, human GlyT1c transporter (Homo sapiens, UniProt P48067)
T1 construct: expressed in transfected cells; host or cells: CHO cells (recombinant; line hGlyT1c_5_CHO is named for the uptake assay)
T1 sequence (P48067 1-706): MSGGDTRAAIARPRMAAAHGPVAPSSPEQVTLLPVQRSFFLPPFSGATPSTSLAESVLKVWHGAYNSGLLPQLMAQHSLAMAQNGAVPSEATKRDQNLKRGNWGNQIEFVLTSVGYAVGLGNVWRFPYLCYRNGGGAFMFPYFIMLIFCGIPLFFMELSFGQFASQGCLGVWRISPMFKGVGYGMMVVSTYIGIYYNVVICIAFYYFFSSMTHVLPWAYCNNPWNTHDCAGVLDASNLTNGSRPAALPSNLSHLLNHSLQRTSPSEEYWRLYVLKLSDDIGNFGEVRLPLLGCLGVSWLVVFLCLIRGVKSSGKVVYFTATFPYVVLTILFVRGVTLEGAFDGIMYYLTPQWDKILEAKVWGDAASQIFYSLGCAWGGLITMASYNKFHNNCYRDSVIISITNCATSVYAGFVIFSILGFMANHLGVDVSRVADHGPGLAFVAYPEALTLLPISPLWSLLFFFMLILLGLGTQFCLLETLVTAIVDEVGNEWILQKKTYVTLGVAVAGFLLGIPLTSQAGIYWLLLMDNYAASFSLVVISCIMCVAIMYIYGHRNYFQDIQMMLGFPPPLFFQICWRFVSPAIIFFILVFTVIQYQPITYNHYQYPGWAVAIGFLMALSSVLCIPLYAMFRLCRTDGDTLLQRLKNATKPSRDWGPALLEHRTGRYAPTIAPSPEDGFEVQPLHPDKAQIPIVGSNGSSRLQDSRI
Assay: Radioligand binding assay using recombinant CHO cell membranes expressing human GlyT1
Conditions: radioligand binding to human GlyT1c transporter-expressing membranes
Excerpt: 2. Radioligand binding assays using recombinant CHO cell membranes expressing human GlyT1: […]

SMILES | Ki
Cn1cnc(S(=O)(=O)N2C[C@@H](CNc3ccc(F)c(Cl)c3)[C@H](c3ccc(F)cc3)C2)c1 (relative stereo) [Example 314, 3-chloro-4-fluoro-N-({trans-4-(4-fluorophenyl)-1-[(1-methyl-1H-imidazol-4-yl)sulfonyl]pyrrolidin-3-yl}methyl)aniline] | ≤ 1000 nM
Cn1cnc(S(=O)(=O)N2C[C@@H](CNc3cccc(Cl)c3)[C@H](c3ccc(F)cc3)C2)c1 (relative stereo) [Example 333, 3-Chloro-N-({trans-4-(4-fluorophenyl)-1-[(1-methyl-1H-imidazol-4-yl)sulfonyl]pyrrolidin-3-yl}methyl)aniline] | ≤ 1000 nM
Cc1cccc(NC[C@@H]2CN(S(=O)(=O)c3cn(C)cn3)C[C@H]2c2ccc(F)cc2)c1 (relative stereo) [Example 334, N-({Trans-4-(4-fluorophenyl)-1-[(1-methyl-1H-imidazol-4-yl)sulfonyl]pyrrolidin-3-yl}methyl)-3-methylaniline] | ≤ 1000 nM
Cn1cnc(S(=O)(=O)N2C[C@@H](CNc3cccc(C(F)(F)F)c3)[C@H](c3ccc(F)cc3)C2)c1 (relative stereo) [Example 335, N-({Trans-4-(4-fluorophenyl)-1-[(1-methyl-1H-imidazol-4-yl)sulfonyl]pyrrolidin-3-yl}methyl)-3-(trifluoromethyl)aniline] | ≤ 1000 nM
Cn1cnc(S(=O)(=O)N2C[C@@H](COc3cc(C(F)(F)F)ncn3)[C@H](c3ccc(F)cc3)C2)c1 (relative stereo) [Example 336, 4-({Trans-4-(4-fluorophenyl)-1-[(1-methyl-1H-imidazol-4-yl)sulfonyl]pyrrolidin-3-yl}methoxy)-6-(trifluoromethyl)pyrimidine] | ≤ 1000 nM
Cn1cnc(S(=O)(=O)N2C[C@@H](Nc3cccc(C(F)(F)F)c3)[C@H](C3CC3)C2)c1 (relative stereo) [Example 337, Trans-4-cyclopropyl-1-[(1-methyl-1H-imidazol-4-yl)sulfonyl]-N-[3-(trifluoromethyl)phenyl]pyrrolidin-3-amine] | ≤ 1000 nM
Cn1cnc(S(=O)(=O)N2C[C@@H](Nc3cccc(Cl)c3)[C@H](C3CC3)C2)c1 (relative stereo) [Example 338, Trans-N-(3-chlorophenyl)-4-cyclopropyl-1-[(1-methyl-1H-imidazol-4-yl)sulfonyl]pyrrolidin-3-amine] | ≤ 1000 nM
Cn1cnc(S(=O)(=O)N2C[C@@H](Nc3ccc(C#N)c(F)c3)[C@H](c3ccc(F)cc3)C2)c1 (relative stereo) [Example 342, 2-fluoro-4-({trans-4-(4-fluorophenyl)-1-[(1-methyl-1H-imidazol-4-yl)sulfonyl]pyrrolidin-3-yl}amino)benzonitrile] | ≤ 10000 nM
Cn1cnc(S(=O)(=O)N2C[C@@H](Nc3cccc(C(F)(F)F)c3)[C@H](c3ccccn3)C2)c1 (relative stereo) [Example 344, trans-1-[(1-methyl-1H-imidazol-4-yl)sulfonyl]-4-(pyridin-2-yl)-N-[3-(trifluoromethyl)phenyl]pyrrolidin-3-amine] | ≤ 100 nM
Cn1cnc(S(=O)(=O)N2C[C@@H](COc3cc(C(F)(F)F)ccn3)[C@H](c3ccc(F)cc3)C2)c1 (relative stereo) [Example 346, 2-({Trans-4-(4-fluorophenyl)-1-[(1-methyl-1H-imidazol-4-yl)sulfonyl]pyrrolidin-3-yl}methoxy)-4-(trifluoromethyl)pyridine] | ≤ 1000 nM
Cn1cnc(S(=O)(=O)N2C[C@@H](C(=O)Nc3cccc(C#N)c3)[C@H](c3ccc(F)cc3)C2)c1 (relative stereo) [Example 347, Trans-N-(3-cyanophenyl)-4-(4-fluorophenyl)-1-[(1-methyl-1H-imidazol-4-yl)sulfonyl]pyrrolidine-3-carboxamide] | ≤ 10000 nM
Cn1cnc(S(=O)(=O)N2C[C@@H](C(=O)c3ccc(F)c(F)c3)[C@H](c3ccc(F)cc3)C2)c1 (relative stereo) [Example 357, (3,4-Difluorophenyl){trans-4-(4-fluorophenyl)-1-[(1-methyl-1H-imidazol-4-yl)sulfonyl]pyrrolidin-3-yl}methanone] | ≤ 1000 nM
Cn1cnc(S(=O)(=O)N2C[C@@H](C(=O)c3ccc(Cl)c(Cl)c3)[C@H](c3ccc(F)cc3)C2)c1 (relative stereo) [Example 359, (3,4-Dichlorophenyl){trans-4-(4-fluorophenyl)-1-[(1-methyl-1H-imidazol-4-yl)sulfonyl]pyrrolidin-3-yl} methanone] | ≤ 1000 nM
Cn1cnc(S(=O)(=O)N2C[C@@H](C(=O)c3cc(F)cc(Cl)c3)[C@H](c3ccc(F)cc3)C2)c1 (relative stereo) [Example 361, (3-Chloro-5-fluorophenyl){trans-4-(4-fluorophenyl)-1-[(1-methyl-1H-imidazol-4-yl)sulfonyl]pyrrolidin-3-yl} methanone] | ≤ 1000 nM
Cn1cnc(S(=O)(=O)N2C[C@@H](CNc3cccc(C(N)=O)c3)[C@H](c3ccc(F)cc3)C2)c1 (relative stereo) [Example 364, 3-[({Trans-4-(4-fluorophenyl)-1-[(1-methyl-1H-imidazol-4-yl)sulfonyl]pyrrolidin-3-yl}methyl)amino]benzamide] | ≤ 10000 nM
Cn1cnc(S(=O)(=O)N2C[C@@H](CNc3cccc(CN)c3)[C@H](c3ccc(F)cc3)C2)c1 (relative stereo) [Example 365, 3-(Aminomethyl)-N-({Trans-4-(4-fluorophenyl)-1-[(1-methyl-1H-imidazol-4-yl)sulfonyl]pyrrolidin-3-yl}methyl)aniline] | ≤ 10000 nM

More lines, now with the values ahead:

Ki | SMILES
≤ 1000 nM | Cn1cnc(S(=O)(=O)N2C[C@@H](CNCc3ccccc3)[C@H](c3ccc(F)cc3)C2)c1 (relative stereo) [Example 315, N-benzyl-1-{trans-4-(4-fluorophenyl)-1-[(1-methyl-1H-imidazol-4-yl)sulfonyl]pyrrolidin-3-yl}methanamine]
≤ 1000 nM | Cc1cccc(NC(=O)[C@@H]2CN(S(=O)(=O)c3cn(C)cn3)C[C@H]2c2ccc(F)cc2)c1 (relative stereo) [Example 316, trans-4-(4-fluorophenyl)-1-[(1-methyl-1H-imidazol-4-yl)sulfonyl]-N-(3-methylphenyl)pyrrolidine-3-carboxamide]
≤ 1000 nM | Cn1cnc(S(=O)(=O)N2C[C@@H](C(=O)Nc3cccc(C(F)(F)F)c3)[C@H](c3ccc(F)cc3)C2)c1 (relative stereo) [Example 317, Trans-4-(4-fluorophenyl)-1-[(1-methyl-1H-imidazol-4-yl)sulfonyl]-N-[3-(trifluoromethyl)phenyl]pyrrolidine-3-carboxamide]
≤ 1000 nM | Cn1cnc(S(=O)(=O)N2C[C@@H](COc3ccc(F)c(Cl)c3)[C@H](c3ccc(F)cc3)C2)c1 (relative stereo) [Example 318, 4-{[Trans-3-[(3-chloro-4-fluorophenoxy)methyl]-4-(4-fluorophenyl)pyrrolidin-1-yl]sulfonyl}-1-methyl-1H-imidazole]
≤ 10 nM | Cn1cnc(S(=O)(=O)N2C[C@@H](NCc3ccc(C(F)(F)F)cc3Cl)[C@H](c3ccccn3)C2)c1 (relative stereo) [Example 320, trans-N-[2-chloro-4-(trifluoromethyl)benzyl]-1-[(1-methyl-1H-imidazol-4-yl)sulfonyl]-4-(pyridin-2-yl)pyrrolidin-3-amine]
≤ 100 nM | Cn1cnc(S(=O)(=O)N2C[C@@H](CNc3ccc(C(F)(F)F)cc3Cl)[C@H](c3ccc(F)cc3)C2)c1 (relative stereo) [Example 332, 2-Chloro-N-({trans-4-(4-fluorophenyl)-1-[(1-methyl-1H-imidazol-4-yl)sulfonyl]pyrrolidin-3-yl}methyl)-4-(trifluoromethyl)aniline]
≤ 100 nM | Cn1cnc(S(=O)(=O)N2C[C@@H](Nc3cccc(Cl)c3)[C@H](c3ccccn3)C2)c1 (relative stereo) [Example 345, Trans-N-(3-chlorophenyl)-1-[(1-methyl-1H-imidazol-4-yl)sulfonyl]-4-(pyridin-2-yl)pyrrolidin-3-amine]
≤ 100 nM | Cn1cnc(S(=O)(=O)N2C[C@@H](COc3ccc(F)cc3)[C@H](c3ccc(F)cc3)C2)c1 (relative stereo) [Example 348, 4-{[Trans-3-[(4-fluorophenoxy)methyl]-4-(4-fluorophenyl)pyrrolidin-1-yl]sulfonyl}-1-methyl-1H-imidazole]
≤ 100 nM | Cn1cnc(S(=O)(=O)N2C[C@@H](C(=O)Nc3ccc(F)cc3)[C@H](c3ccc(F)cc3)C2)c1 (relative stereo) [Example 358, Trans-N,4-bis(4-fluorophenyl)-1-[(1-methyl-1H-imidazol-4-yl)sulfonyl]pyrrolidine-3-carboxamide]
≤ 100 nM | Cn1cnc(S(=O)(=O)N2C[C@@H](C(=O)c3ccc(OC(F)(F)F)cc3)[C@H](c3ccc(F)cc3)C2)c1 (relative stereo) [Example 363, {Trans-4-(4-fluorophenyl)-1-[(1-methyl-1H-imidazol-4-yl)sulfonyl]pyrrolidin-3-yl}[4-(trifluoromethoxy)phenyl]methanone]
